System: p62 puncta
Assay: p62 puncta immunocytochemistry imaging in HeLa cells
Assay type: cell-based
Conditions: 24 hours treatment, relative to vehicle control (DMSO)
Method: HeLa cells were seeded in coated 96-well plates (10,000 cells) and allowed to adhere overnight. After 24 hours of treatment with either vehicle (DMSO) or test compounds, the media was discarded, and cells were rinsed with ice-cold 1×PBS before fixation by 4% formaldehyde or paraformaldehyde for 20 min. Cells were then washed with 1×PBS and permeabilized with 0.1% Triton X-100 in PBS for 20 min and blocked with Blocking Buffer in PBS for 1 hour. The cells were incubated thereafter for 1 hour with anti-p62 primary antibody in Blocking Buffer, followed by incubation with secondary antibody for 1 hour. DAPI dye was used to visualize nuclei of fixed cells. The blocking buffer used were 5% Fetal Bovine Serum (FBS, ThermoFIsher Scientific, 10270106) and Li-cor Intercept (PBS) Blocking Buffer (Li-cor, 927-70001). The primary antibody used was mouse anti-p62 primary antibody (Novus Biologicals, H00008878-M01). The secondary antibodies used were goat anti-mouse Alexa Fluor Plus 488 secondary antibody (Invitrogen, GOXMS) and goat anti-mouse Alexa Fluor 488 secondary antibody (Invitrogen, A-11029). The DAPI dyes used were DAPI dye (Invitrogen, 62248) and DAPI dye (Invitrogen, D1306).
For the EVOS M7000 System, cells were imaged on the EVOS M7000 microscope using a 20× air objective (Nikon, N.A 0.45). DAPI and p62 channels were illuminated with LED light cubes using integrated hard-coated filter sets for DAPI (357/447 nm) and GFP (470/525 nm) respectively. Images were analysed for p62 puncta count on the Celeste 6.0 software.
For the Operetta CLS System, cells were imaged on the Operetta CLS using a 63× water objective on the DAPI and Alexa 488 channels. Images were analysed for p62 puncta count on the Harmony 5.1 software.
HeLa cells were treated with compounds for 24 hours to evaluate the effect of these compounds on p62 puncta activity. The resulting changes in levels of p62 puncta were assessed by imaging, either on the EVOS M7000 or Operetta CLS systems as described in experimental procedures. The fold change of p62 puncta levels induced by compound treatment relative to vehicle control (DMSO) was determined and summarized in Table 10.

Compound | p62 puncta (fold change of p62 puncta levels)
CC(C)NCC(O)COc1ccc2c(ccn2Cc2ccccc2)c1 (stereo not drawn) [Compound 39] | ++ (>2-fold change in p62 puncta levels relative to DMSO control)
CNCCOCc1cccc2c1ccn2Cc1ccc(F)cc1 [Compound 77] | ++ (>2-fold change in p62 puncta levels relative to DMSO control)
OCCNCc1ccc(Cl)c2c1ccn2Cc1ccc(F)cc1 [Compound 80] | ++ (>2-fold change in p62 puncta levels relative to DMSO control)
Cc1cn(Cc2ccc(F)cc2)c2cc(F)cc(CNCCO)c12 [Compound 81] | ++ (>2-fold change in p62 puncta levels relative to DMSO control)
O=C(Cn1ccc2c(CNCCO)cc(F)cc21)c1ccc(F)cc1 [Compound 83, 2-(6-fluoro-4-(((2-hydroxyethyl)amino)methyl)-1H-indol-1-yl)-1-(4-fluorophenyl)ethan-1-one] | ++ (>2-fold change in p62 puncta levels relative to DMSO control)
C#CCCOCCOCCNCc1cc(F)cc2c1ccn2Cc1ccc(Cl)cc1 [Compound 86] | ++ (>2-fold change in p62 puncta levels relative to DMSO control)
C#CCCOCCOCCOCCNCc1cc(F)cc2c1ccn2Cc1ccc(Cl)cc1 [Compound 87, 2-(2-(2-(but-3-yn-1-yloxy)ethoxy)ethoxy)-N-((1-(4-chlorobenzyl)-6-fluoro-1H-indol-4-yl)methyl)ethan-1-amine] | ++ (>2-fold change in p62 puncta levels relative to DMSO control)
COC(=O)CCOCCOCCNCc1cc(F)cc2c1ccn2Cc1ccc(Cl)cc1 [Compound 88] | + (<2-fold change in p62 puncta levels relative to DMSO control)
CNCCOCCOCCNCc1cc(F)cc2c1ccn2Cc1ccc(Cl)cc1 [Compound 89] | ++ (>2-fold change in p62 puncta levels relative to DMSO control)
CNCCOCCOCCOCCNCc1cc(F)cc2c1ccn2Cc1ccc(Cl)cc1 [Compound 90] | ++ (>2-fold change in p62 puncta levels relative to DMSO control)
CC(C)(C)OC(=O)N1CCC(OCCOCCNCc2cc(F)cc3c2ccn3Cc2ccc(Cl)cc2)CC1 [Compound 93] | ++ (>2-fold change in p62 puncta levels relative to DMSO control)
Fc1cc(CNCCOCCOCCOCCCOc2ccccc2)c2ccn(Cc3ccc(Cl)cc3)c2c1 [Compound 94] | ++ (>2-fold change in p62 puncta levels relative to DMSO control)
COCCNCc1cc(F)cc2c1ccn2Cc1ccc(Cl)cc1 [Compound 108] | ++ (>2-fold change in p62 puncta levels relative to DMSO control)
OCCNCc1cncc2c1ccn2Cc1ccc(Cl)cc1 [Compound 110, 2-(((1-(4-chlorobenzyl)-1H-pyrrolo[2,3-c]pyridin-4-yl)methyl)amino)ethan-1-ol] | ++ (>2-fold change in p62 puncta levels relative to DMSO control)
OCCNCc1ccnc2c1ccn2Cc1ccc(Cl)cc1 [Compound 111] | + (<2-fold change in p62 puncta levels relative to DMSO control)
OCCNCc1cc2ccn(Cc3ccc(F)cc3)c2cc1F [Compound 112, 2-(((6-fluoro-1-(4-fluorobenzyl)-1H-indol-5-yl)methyl)amino)ethan-1-ol] | ++ (>2-fold change in p62 puncta levels relative to DMSO control)
OCCNCc1cncc2c1ccn2Cc1ccc(F)cc1 [Compound 113] | + (<2-fold change in p62 puncta levels relative to DMSO control)
COC1CN(Cc2cncc3c2ccn3Cc2ccc(F)cc2)C1 [Compound 114] | + (<2-fold change in p62 puncta levels relative to DMSO control)
C#CCCOCCOCCNCC(O)COc1cccc2c1ccn2Cc1ccccc1 (stereo not drawn) [Compound 117] | ++ (>2-fold change in p62 puncta levels relative to DMSO control)
COC(=O)CCOCCNCC(O)COc1cccc2c1ccn2Cc1ccccc1 (stereo not drawn) [Compound 118] | ++ (>2-fold change in p62 puncta levels relative to DMSO control)
C#CCCN1CCC(OCCNCc2cc(F)cc3c2ccn3Cc2ccc(Cl)cc2)CC1 [Compound 119] | ++ (>2-fold change in p62 puncta levels relative to DMSO control)
C#CCCN1CCC(COCCNCc2cc(F)cc3c2ccn3Cc2ccc(Cl)cc2)CC1 [Compound 120] | ++ (>2-fold change in p62 puncta levels relative to DMSO control)
C#CCCN1CCN(CCOCCNCc2cc(F)cc3c2ccn3Cc2ccc(Cl)cc2)CC1 [Compound 121] | ++ (>2-fold change in p62 puncta levels relative to DMSO control)

Compound | p62 puncta (fold change of p62 puncta levels)
C#CCCOCCOCCOCCNCc1ccc(Cl)c2c1ccn2Cc1ccccc1 [Compound 122] | ++ (>2-fold change in p62 puncta levels relative to DMSO control)
C#CCCOCCOCCOCCNCc1cc(F)cc2c1ccn2Cc1ccc(F)cc1 [Compound 123] | ++ (>2-fold change in p62 puncta levels relative to DMSO control)
C#CCCOCCNCc1cc(F)cc2c1ccn2Cc1ccc(F)cc1 [Compound 125] | + (<2-fold change in p62 puncta levels relative to DMSO control)
C#CCCOCCOCCOCCNCc1cccc2c1ccn2CCc1cccnc1 [Compound 126] | + (<2-fold change in p62 puncta levels relative to DMSO control)
CC(C)(C)OC(=O)NC1CCN(CCOCCNCc2cc(F)cc3c2ccn3Cc2ccc(Cl)cc2)CC1 [Compound 127] | ++ (>2-fold change in p62 puncta levels relative to DMSO control)
CC(C)(C)OC(=O)NCCN1CCN(CCOCCNCc2cc(F)cc3c2ccn3Cc2ccc(Cl)cc2)CC1 [Compound 128] | ++ (>2-fold change in p62 puncta levels relative to DMSO control)
COC1CCN(CCOCCNCc2cc(F)cc3c2ccn3Cc2ccc(Cl)cc2)CC1 [Compound 129] | ++ (>2-fold change in p62 puncta levels relative to DMSO control)
COCCN1CCC(OCCNCc2cc(F)cc3c2ccn3Cc2ccc(Cl)cc2)CC1 [Compound 130] | ++ (>2-fold change in p62 puncta levels relative to DMSO control)
CC(C)(C)OC(=O)NCCOCCNCc1cc(F)cc2c1ccn2Cc1ccc(Cl)cc1 [Compound 133] | ++ (>2-fold change in p62 puncta levels relative to DMSO control)
CC(C)(C)OC(=O)N1CCC(COCCNCc2cc(F)cc3c2ccn3Cc2ccc(Cl)cc2)CC1 [Compound 134] | ++ (>2-fold change in p62 puncta levels relative to DMSO control)
CC(C)(C)OC(=O)NCCOCCOCCNCc1cc(F)cc2c1ccn2Cc1ccc(Cl)cc1 [Compound 135] | ++ (>2-fold change in p62 puncta levels relative to DMSO control)
CC(C)(C)OC(=O)NCCOCCOCCOCCNCc1cc(F)cc2c1ccn2Cc1ccc(Cl)cc1 [Compound 136] | ++ (>2-fold change in p62 puncta levels relative to DMSO control)
C#CCOCCOCCOCCNCc1cc(F)cc2c1ccn2Cc1ccc(Cl)cc1 [Compound 137] | ++ (>2-fold change in p62 puncta levels relative to DMSO control)
CC(C)(C)OC(=O)CCOCCOCCNCc1cc(F)cc2c1ccn2Cc1ccc(Cl)cc1 [Compound 138] | ++ (>2-fold change in p62 puncta levels relative to DMSO control)
CC(C)(C)OC(=O)COCCCOCCNCc1cc(F)cc2c1ccn2Cc1ccc(Cl)cc1 [Compound 139] | + (<2-fold change in p62 puncta levels relative to DMSO control)
C#CCOCCOCCNCc1cc(F)cc2c1ccn2Cc1ccc(Cl)cc1 [Compound 140] | ++ (>2-fold change in p62 puncta levels relative to DMSO control)
CC(C)(C)OC(=O)COCCNCc1cc(F)cc2c1ccn2Cc1ccc(Cl)cc1 [Compound 141] | + (<2-fold change in p62 puncta levels relative to DMSO control)
CC(C)(C)OC(=O)CCOCCNCc1cc(F)cc2c1ccn2Cc1ccc(Cl)cc1 [Compound 142] | + (<2-fold change in p62 puncta levels relative to DMSO control)
C#CCCOCCNCc1cc(F)cc2c1ccn2Cc1ccc(Cl)cc1 [Compound 143] | ++ (>2-fold change in p62 puncta levels relative to DMSO control)
COC(=O)c1ccc(COCCNCc2cc(F)cc3c2ccn3Cc2ccc(Cl)cc2)cc1 [Compound 144] | + (<2-fold change in p62 puncta levels relative to DMSO control)
COC(=O)c1cccc(COCCNCc2cc(F)cc3c2ccn3Cc2ccc(Cl)cc2)c1 [Compound 145] | + (<2-fold change in p62 puncta levels relative to DMSO control)
Fc1cc(CNCCOCCCCl)c2ccn(Cc3ccc(Cl)cc3)c2c1 [Compound 146] | ++ (>2-fold change in p62 puncta levels relative to DMSO control)

Reference: patent US20250243160A1, “INDOLE DERIVATIVES FOR TARGETING AUTOPHAGY” (Automera PTE. LTD, priority 2024, published 2025)
